According to patent publication US7300946B2, “N-(substituted arylmethyl)-4-(disubstituted methyl) piperidines and pyridines” (Bayer CropScience AG, priority 2002, dated 2007):

Tested on: tobacco budworm (Heliothis virescens [Fabricius])
Assay: surface-treated diet test against the tobacco budworm
Format: in vivo
Settings: tobacco budworm second instar larvae, surface-treated diet, 0.25 millimoles of candidate insecticide on the surface of the diet, five-day exposure; for Percent Mortality: compared to total number of insects infested; for Percent Growth Inhibition: inhibition of insect weight relative to untreated controls
Procedure, shortened: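 Wheat germ artificial diet surface-treated with 40 µL of 50 mM DMSO stock diluted 1:7 in 1:1 water/acetone (0.25 millimolar on diet), or sub-multiples for rate tests. One second-instar larva per well, 25° C, 60% RH, 5 days; percent weight inhibition vs DMSO controls and percent mortality.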

Structure (SMILES)	Percent Mortality [%]	Percent Growth Inhibition [%]
CCCOc1ccc(CN2CCC(C(OC(=O)Nc3cc(F)cc(F)c3)c3ccc(F)cc3)CC2)cc1 (stereo not drawn) [Compound 479]	100	100
CCCOc1ccc(CN2CCC(C(OC(=O)Nc3ccc(Cl)cc3)c3ccc(Cl)c(Cl)c3)CC2)cc1 (stereo not drawn) [Compound 480]	100	100
CCCOc1ccc(CN2CCC(C(OC(=O)Nc3ccc(F)cc3)c3ccc(Cl)c(Cl)c3)CC2)cc1 (stereo not drawn) [Compound 481]	100	100
CCCOc1ccc(CN2CCC(C(OC(=O)Nc3cc(F)cc(F)c3)c3ccc(Cl)c(Cl)c3)CC2)cc1 (stereo not drawn) [Compound 482]	100	100
CCCOc1ccc(CN2CCC(C(OC(=O)Nc3cccc(C(F)(F)F)c3)c3ccc(Cl)c(Cl)c3)CC2)cc1 (stereo not drawn) [Compound 483]	100	100
CCCOc1ccc(CN2CCC(C(OC(=O)Nc3ccc(C(F)(F)F)cc3)c3ccc(Cl)c(Cl)c3)CC2)cc1 (stereo not drawn) [Compound 484]	100	100
CCCOc1ccc(CN2CCC(C(OC(=O)Nc3ccc(Cl)cc3)c3cccc(C(F)(F)F)c3)CC2)cc1 (stereo not drawn) [Compound 485]	100	100
CCCOc1ccc(CN2CCC(C(OC(=O)Nc3ccc(F)cc3)c3cccc(C(F)(F)F)c3)CC2)cc1 (stereo not drawn) [Compound 486]	100	100
CCCOc1ccc(CN2CCC(C(OC(=O)Nc3cc(F)cc(F)c3)c3cccc(C(F)(F)F)c3)CC2)cc1 (stereo not drawn) [Compound 487]	100	100
CCCOc1ccc(CN2CCC(C(OC(=O)Nc3cccc(C(F)(F)F)c3)c3cccc(C(F)(F)F)c3)CC2)cc1 (stereo not drawn) [Compound 488]	100	100
CCCOc1ccc(CN2CCC(C(OC(=O)Nc3ccc(C(F)(F)F)cc3)c3cccc(C(F)(F)F)c3)CC2)cc1 (stereo not drawn) [Compound 489]	100	100
CCCOc1ccc(CN2CCC(C(OC(=O)Nc3ccc(Cl)cc3)c3ccc(C(F)(F)F)cc3)CC2)cc1 (stereo not drawn) [Compound 490]	100	100
CCCOc1ccc(CN2CCC(C(OC(=O)Nc3cc(F)cc(F)c3)c3ccc(C(F)(F)F)cc3)CC2)cc1 (stereo not drawn) [Compound 491]	100	100
CC(C)OC(=O)c1ccc(CN2CCC(C(OC(=O)Nc3ccc(Cl)cc3)c3ccc(C(F)(F)F)cc3)CC2)cc1 (stereo not drawn) [Compound 492]	100	100
CC(C)OC(=O)c1ccc(CN2CCC(C(OC(=O)Nc3cc(F)cc(F)c3)c3ccc(C(F)(F)F)cc3)CC2)cc1 (stereo not drawn) [Compound 493]	100	100
CC(=O)Nc1ccc(CN2CCC(C(OC(=O)Nc3ccc(Cl)cc3)c3ccc(C(F)(F)F)cc3)CC2)cc1 (stereo not drawn) [Compound 494]	0	77
CC(=O)Nc1ccc(CN2CCC(C(OC(=O)Nc3cc(F)cc(F)c3)c3ccc(C(F)(F)F)cc3)CC2)cc1 (stereo not drawn) [Compound 495]	0	98
CC(C)C(=O)Nc1ccc(CN2CCC(C(OC(=O)Nc3cc(F)cc(F)c3)c3ccc(C(F)(F)F)cc3)CC2)cc1 (stereo not drawn) [Compound 496]	100	100
